We go through 27 compounds from patent publication US5245034A, “Compound having vessel smooth muscle relaxation activity” (Hidaka; Kiroyoshi, priority 1988, dated 1993).

Structures can show the parent of a compound that is named as a salt.

This experiment relates to superior mesenteric artery (contracted by potassium chloride). Put plainly: Vessel Smooth Muscle Relaxation Action (V.R.). It counts as cell-based, rabbit. To be noted: Oryctolagus cuniculus; concentration relaxing KCl-contracted strain to 50%; cumulative administration; read-out: V.R. (ED50). The text has this: The specimen was suspended by loading a strain in Krebs-Henseleit solution through which an oxygen gas containing 5% carbon dioxide was bubbled. The specimen was contracted by adding potassium chloride to maintain a predetermined strain. Thereafter, a test compound was cumulatively administrated.
For `CN(C(Cc1ccc(O)cc1)CN1CCN(S(=O)(=O)c2ccccc2)CC1)S(=O)(=O)c1cccc2cnccc12` (stereo not drawn) [Example 62, N-{2-[(4-Benzenesulfonyl)Piperazinyl)-1-(P-Hydroxybenzyl)-Ethyl}-N-Methyl-5-Isoquinolinesulfonamide], the EC50 is 2.3 µM.

With `CC(C=Cc1ccccn1)NCCNS(=O)(=O)c1cccc2cnccc12` (stereo not drawn) [Example 162, N-{2-[1-Methyl-3-(2-Pyridyl)-2-Propenylamino]Ethyl}-5-Isoquinolinesulfonamide], the EC50 amounted to 35 µM.

For `O=S(=O)(NC(Cc1ccc(O)c(O)c1)CN1CCN(c2ccccc2)CC1)c1cccc2cnccc12` (stereo not drawn) [Example 8, N-{1-[(3,4-Dihydroxyphenyl)Methyl]-2-(4-Phenylpiperazinyl)Ethyl}-5-Isoquinoline Sulfonamide], the EC50 came to 1.8 µM.

`CC(C=Cc1ccccc1)NCCCNS(=O)(=O)c1cccc2cnccc12` (stereo not drawn) [Example 171, N-[3-(α-Methylcinnamylamino)Propyl]-5-Isoquinolinesulfonamide]: the EC50 was determined as 5.4 µM.

For the compound `CN(C(Cc1ccc(OS(=O)(=O)c2cccc3ccccc23)cc1)CN1CCN(C(=O)OCc2ccccc2)CC1)S(=O)(=O)c1cccc2ccccc12` (stereo not drawn) [Example 78, N-{2-(4-benzyloxycarbonylpiperazinyl)-1-[p-(α-naphtharenesulfonyloxy)benzyl]ethyl}-N-methyl-α-naphtharenesulfonamide], the EC50 came to 1.8 µM.

In the case of `COc1ccc(CC(CN2CCN(C(=O)OCc3ccccc3)CC2)NS(=O)(=O)c2cccc3cnccc23)cc1` (stereo not drawn) [Example 73, N-[2-(4-benzyloxycarbonylpiperazinyl)-1-(p-methoxybenzyl)ethyl]-5-isoquinolinesulfonamide], the EC50 came out at 14 µM.

With `Cc1ccc(S(=O)(=O)Nc2ccc(C[C@@H](C(=O)N3CCN(c4ccccc4)CC3)N(C)S(=O)(=O)c3cccc4cnccc34)cc2)cc1` [Example 22, 1-[N-(5-isoquinolinesulfonyl)-N-methyl-p-(p-toluenesulfonylamino)phenylalanyl]-4-phenylpiperazine], the EC50 amounted to 1.8 µM.

Take `CN(C(Cc1ccc(O)cc1)CN1CCC(NCc2ccccc2)CC1)S(=O)(=O)c1cccc2cnccc12` (stereo not drawn) [Example 98, N-{2-[4-(N-benzylamino)piperidino]-1-(p-hydroxybenzyl)ethyl}-N-methyl-5-isoquinolinesulfonamide]: the EC50 was 22 µM.

`COc1ccc(N2CCN(CC(Cc3ccc(N4C(=O)c5ccccc5C4=O)cc3)NS(=O)(=O)c3cccc4cnccc34)CC2)cc1` (stereo not drawn) [Example 125, N-{2-[4-(P-Methoxyphenyl)Piperazinyl]-1-(P-Phthalimidebenzyl)ethyl}-5-isoquinolinesulfonamide]: the EC50 amounted to 9.2 µM.

With `O=S(=O)(NC(Cc1ccc(O)cc1)CN1CCN(c2ccccc2)CC1)c1cccc2cnccc12` (stereo not drawn) [Example 37, N-[1-(p-hydroxybenzyl)-2-(4-phenylpiperazinyl)ethyl]-5-isoquinolinesulfonamide], the EC50 came out at 4.4 µM.

In the case of `CN(C(Cc1ccc(O)cc1)CN1CCN(C(=O)OCc2ccccc2)CC1)S(=O)(=O)c1cccc2cnccc12` (stereo not drawn) [Example 67, N-[2-(4-benzyloxycarbonylpiperazinyl)-1-(p-hydroxybenzyl)ethyl]-N-methyl-5-isoquinolinesulfonamide], the EC50 turned out to be 2.2 µM.

Consider `COc1ccc(N2CCN(CC(Cc3ccc(NS(=O)(=O)c4cccc5cnccc45)cc3)N(C)S(=O)(=O)c3cccc4cnccc34)CC2)cc1` (stereo not drawn) [Example 129, N-{1-[p-(5-isoquinolinesulfonylaminobenzyl)]-2-[4-(p-methoxyphenyl)piperazinyl]ethyl}-N-methyl-5-isoquinolinesulfonamide], for which the EC50 came out at 0.82 µM.

In the case of `CN(C)c1ccc(C=CCNCCNS(=O)(=O)c2cccc3cnccc23)cc1` [Example 174], the EC50 was determined as 11 µM.

As for `Cc1cccc(N2CCN(CC(Cc3ccc(O)cc3)N(C)S(=O)(=O)c3cccc4cnccc34)CC2)c1` (stereo not drawn) [Example 51, N-{1-(p-hydroxybenzyl)-2-[4-(m-methylphenyl)piperazinyl]ethyl}-N-methyl-5-isoquinolinesulfonamide], the EC50 was determined as 0.17 µM.

`O=S(=O)(c1cccc2cnccc12)N1Cc2cc(O)c(O)cc2CC1CN1CCN(c2ccccc2)CC1` (stereo not drawn) [Example 10, 6,7-Dihydroxy-2-(5-Isoquinolinesulfonyl)-3-[(4-Phenylpiperazinyl)methyl]-1,2,3,4-tetrahydroisoquinoline]: the EC50 was 6.4 µM.

Take `COc1ccc(N2CCN(CC(Cc3ccc(OS(=O)(=O)c4cccc5cnccc45)cc3)NS(=O)(=O)c3cccc4cnccc34)CC2)cc1` (stereo not drawn) [Example 52]: the EC50 stood at 9.9 µM.

`O=S(=O)(NC(Cc1ccc(OS(=O)(=O)c2cccc3cnccc23)cc1)CN1CCN(c2ccccc2)CC1)c1cccc2cnccc12` (stereo not drawn) [Example 34]: the EC50 is 1.8 µM.

Turning to `COc1ccc(CC(CN2CCN(C(=O)OCc3ccccc3)CC2)N(C)S(=O)(=O)c2cccc3cnccc23)cc1` (stereo not drawn) [Example 72, N-[2-(4-benzyloxycarbonylpiperazinyl)-1-(p-methoxybenzyl)ethyl]-N-methyl-5-isoquinolinesulfonamide], the EC50 amounted to 4 µM.

For the compound `COc1ccc(N2CCN(CC(Cc3ccc(N(C)S(=O)(=O)c4cccc5cnccc45)cc3)N(C)S(=O)(=O)c3cccc4cnccc34)CC2)cc1` (stereo not drawn) [Example 131, N-[[1-{P-[N-5-Isoquinolinesulfonyl)-N-(Methylamino)Benzyl]}-2-[4-(P-Methoxyphenylpiperazinyl]Ethyl]]-N-Methyl-5-Isoquinolinesulfonamide], the EC50 was found to be 1.5 µM.

Regarding `COc1ccc(C=CC(C)NCCNS(=O)(=O)c2cccc3cnccc23)cc1` (stereo not drawn) [Example 169, N-2-(4-Methoxy-α-Methylcinnamylamino)ethyll-5-Isoquinolinesulfonamide], the EC50 stood at 4.6 µM.

Turning to `O=S(=O)(NCCNCC=Cc1ccccc1)c1cccc2cnccc12` [Example 201, N-(2-Cinnamylaminoethyl)-5-Isoquinolinesulfonamide.1/2 Fumarate], the EC50 was determined as 3.2 µM.

As for `COc1ccc(N2CCN(CC(Cc3ccc(N)cc3)N(C)S(=O)(=O)c3cccc4cnccc34)CC2)cc1` (stereo not drawn) [Example 128, N-{1-(p-aminobenzyl)-2-[4-(p-methoxyphenyl)piperazinyl]ethyl}-N-methyl-5-isoquinolinesulfonamide], the EC50 is 1.8 µM.

As to `O=C(CCc1ccccc1)N1CCN(C(=O)[C@H](Cc2ccc(O)cc2)NS(=O)(=O)c2cccc3cnccc23)CC1` [Example 31, 1-[N-(5-isoquinolinesulfonyl)tyrosyl]-4-(3-phenylpropionyl)piperazine], the EC50 came to 24 ± 7 µM.

Consider `CN(c1ccccc1NCC=Cc1cccnc1)S(=O)(=O)c1cccc2cnccc12` [Example 146, N-{2-[3-(3-pyridyl)allylamino)phenyl}-N-methyl-5-isoquinolinesulfonamide], for which the EC50 came out at 2.8 µM.

With `O=C([C@H](Cc1ccc(O)cc1)NS(=O)(=O)c1cccc2cnccc12)N1CCCN(CCCc2ccccc2)CC1` [Example 124, 1-[N-(5-Isoquinolinesulfonyl)Tyrosyl]-4-(3-Phenylpropyl)Homopiperazine], the EC50 was 11 µM.

For `CC(C=Cc1ccco1)NCCNS(=O)(=O)c1cccc2cnccc12` (stereo not drawn) [Example 165, N-{2-[3-(2-Furyl)-1-Methyl-2-Propenylamino]Ethyl}-5-Isoquinolinesulfonamide], the EC50 worked out at 11 µM.

For `COc1ccc(CC(CN2CCC(O)CC2)N(C)S(=O)(=O)c2cccc3cnccc23)cc1` (stereo not drawn) [Example 101], the EC50 is 29 µM.
